Results taken from patent US20070173490A1, “Novel solid forms of (4R)-1-[2-chloro-5-fluorobenzoyl)amino-3-methoxybenzoyl]-1,2,3,5- tetrahydro-spiro[4h-1-benzazepine-4,1'-[2]cyclopentene]-3'-carboxylic acid” (priority 2006, published 2007).
Entries after “also recorded” stand apart in the source; their conditions may differ. Each block holds one compound with its values, some of them ahead of it.

Assays:
Assay type in all cases: physicochemical
[1] = Crystallization solvents list and observations (solubility of the compound in solvents); details: about 20 mg in 4 ml vial, about 40° C.
Protocol: About 20 mg of (4R)-1-[4-(2-chloro-5-fluorobenzoyl)amino-3-methoxybenzoyl]-1,2,3,5-tetrahydro-spiro[4H-1-benzazepine-4,1′-[2]cyclopentene]-3′-carboxylic acid was transferred into a 4 ml vial. Solvent was added in the vial to make the solution or suspension depending on solubility at about 40° C. on hot plate. The vial was removed from hot plate and kept at room temperature. The caps were put on without sealing. All the vials were placed in the hood for slow evaporation. After the solvent evaporated, the solid was investigated using PXRD, DSC, TGA, and microscope.

[2] = Water slurry study of polymorph stability
Protocol: Form 6 was crystallized from acetone, butanol, ethanol, isopropyl alcohol, hexane, and water. It melted with a peak at about 203-204° C. and a heat of fusion of about 75-80 J/g.

[3] = Solid form conversion on heating/desolvation via DSC; details: conversions occurred via DSC, upon heating/desolvation
Protocol: DSC analysis of each sample was performed using a Q100 Differential Scanning Calorimeter (TA Instruments, New Castle, Del., U.S.A.), which uses Thermal Advantage™ version 4.1.0 for operating instrument. In addition, the analysis software used was Universal Analysis 2000 for Windows 2000/XP, version 4.1D; Build 4.1.0.16 (Copyright © 1998-2004 TA Instruments-Water LLC).
For all of the DSC analyses, an aliquot of a sample was weighed into either a standard aluminium pan (Pan part #900786.091; lid part #900779.901) or a hermetic aluminium pan (Pan part #900793.901; lid part #900794.901 (TA Instruments, New Castle Del. USA)). Non-solvated samples were loaded into standard pans and were sealed either by crimping for dry samples or press fitting for wet samples (such as slurries). Solvated samples (including hydrates) were loaded into hermetic pans and hermetically sealed. The sample pan was loaded into the Q100 Differential Scanning Calorimeter, which is equipped with an autosampler, and a thermogram was obtained by individually heating the same using the control software at a rate of 10° C./minute from Tmin (typically 25° C.) to Tmax (typically 275° C.) using an empty aluminium pan as a reference. Dry nitrogen (compressed nitrogen, grade 4.8 (BOC Gases, Murray Hill, N.J. USA)) was used as a sample purge gas and was set at a flow rate of 50 mL/minute. Thermal transitions were viewed and analyzed using the analysis software provided with the instrument.
At least 10 forms were discovered based on distinguished PXRD patterns (all conversions occurred via DSC; such conversions can also occur under ambient conditions at a slower pace).

Solid form conversion (physical stability) ([3]; listed as 4): (solvate converted to an amorphous form)
SMILES: COc1cc(C(=O)N2CC[C@]3(C=C(C(=O)O)CC3)Cc3ccccc32)ccc1NC(=O)c1cc(F)ccc1Cl [Form 4, (4R)-1-[4-(2-chloro-5-fluorobenzoyl)amino-3-methoxybenzoyl]-1,2,3,5-tetrahydro-spiro[4H-1-benzazepine-4,1′-[2]cyclopentene]-3′-carboxylic acid]

Thermodynamic stability among polymorphs ([2]; from highest melting temperature and heat of fusion, confirmed by water slurry study): thermodynamically most stable polymorph
SMILES: COc1cc(C(=O)N2CC[C@]3(C=C(C(=O)O)CC3)Cc3ccccc32)ccc1NC(=O)c1cc(F)ccc1Cl [Form 6, (4R)-1-[4-(2-chloro-5-fluorobenzoyl)amino-3-methoxybenzoyl]-1,2,3,5-tetrahydro-spiro[4H-1-benzazepine-4,1′-[2]cyclopentene]-3′-carboxylic acid]

Solid form conversion (physical stability) ([3]; listed as 7): (solvate converted to form 1) | Solid form conversion (physical stability) ([3]; listed as form 7): converted to form 1
SMILES: COc1cc(C(=O)N2CC[C@]3(C=C(C(=O)O)CC3)Cc3ccccc32)ccc1NC(=O)c1cc(F)ccc1Cl [Form 7, (4R)-1-[4-(2-chloro-5-fluorobenzoyl)amino-3-methoxybenzoyl]-1,2,3,5-tetrahydro-spiro[4H-1-benzazepine-4,1′-[2]cyclopentene]-3′-carboxylic acid]
Solid form conversion (physical stability) [3]: converted to form 1; also recorded: ultimately to form 6

Solid form conversion (physical stability) [3]: converted to form 1 | Solid form conversion (physical stability) ([3]; listed as 8): (solvate converted to form 1) | Solid form conversion (physical stability) ([3]; listed as form 8): converted to form 1
SMILES: COc1cc(C(=O)N2CC[C@]3(C=C(C(=O)O)CC3)Cc3ccccc32)ccc1NC(=O)c1cc(F)ccc1Cl [Form 8, (4R)-1-[4-(2-chloro-5-fluorobenzoyl)amino-3-methoxybenzoyl]-1,2,3,5-tetrahydro-spiro[4H-1-benzazepine-4,1′-[2]cyclopentene]-3′-carboxylic acid]

Second part, the compound before the results:

SMILES: COc1cc(C(=O)N2CC[C@]3(C=C(C(=O)O)CC3)Cc3ccccc32)ccc1NC(=O)c1cc(F)ccc1Cl [Compound of Formula (I), (4R)-1-[4-(2-chloro-5-fluorobenzoyl)amino-3-methoxybenzoyl]-1,2,3,5-tetrahydro-spiro[4H-1-benzazepine-4,1′-[2]cyclopentene]-3′-carboxylic acid]
Observation (solubility) ([1]; 1,4-Dioxane): Good solubility | Observation (solution or suspension) ([1]; 1,4-Dioxane): Solution | Observation (solubility) ([1]; Acetone): Good solubility | Observation (solution or suspension) ([1]; Acetone): Solution | Observation (solubility) ([1]; Acetonitrile): Good solubility | Observation (solution or suspension) ([1]; Acetonitrile): Solution | Observation (solubility) ([1]; Butanol): Medium solubility | Observation (solution or suspension) ([1]; Butanol): Solution | Observation (solubility) ([1]; Dichloromethane): Good solubility | Observation (solution or suspension) ([1]; Dichloromethane): Solution | Observation (solubility) ([1]; Ethanol): Medium solubility | Observation (solution or suspension) ([1]; Ethanol): Solution | Observation (solubility) ([1]; Ethyl acetate): Good solubility | Observation (solution or suspension) ([1]; Ethyl acetate): Solution | Observation (solubility) ([1]; Hexane): Poor solubility | Observation (solution or suspension) ([1]; Hexane): Suspension | Observation (solubility) ([1]; Isopropyl alcohol): Medium solubility | Observation (solution or suspension) ([1]; Isopropyl alcohol): Solution | Observation (solubility) ([1]; Methanol): Medium solubility | Observation (solution or suspension) ([1]; Methanol): Solution | Observation (solubility) ([1]; Nitromethane): Good solubility | Observation (solution or suspension) ([1]; Nitromethane): Solution | Observation (solubility) ([1]; Toluene): Solution is not clear | Observation (solution or suspension) ([1]; Toluene): Precipitation | Observation (solubility) ([1]; Water): Poor wetability | Observation (solution or suspension) ([1]; Water): Suspension

SMILES: COc1cc(C(=O)N2CC[C@]3(C=C(C(=O)O)CC3)Cc3ccccc32)ccc1NC(=O)c1cc(F)ccc1Cl [Form 1, (4R)-1-[4-(2-chloro-5-fluorobenzoyl)amino-3-methoxybenzoyl]-1,2,3,5-tetrahydro-spiro[4H-1-benzazepine-4,1′-[2]cyclopentene]-3′-carboxylic acid]
Solid form conversion in water slurry ([2]; equal amount of forms 1, 5 and 6 mixed in water for more than 76 hours): converted to form 6

SMILES: COc1cc(C(=O)N2CC[C@]3(C=C(C(=O)O)CC3)Cc3ccccc32)ccc1NC(=O)c1cc(F)ccc1Cl [Form 2, (4R)-1-[4-(2-chloro-5-fluorobenzoyl)amino-3-methoxybenzoyl]-1,2,3,5-tetrahydro-spiro[4H-1-benzazepine-4,1′-[2]cyclopentene]-3′-carboxylic acid]
Solid form conversion (physical stability) ([3]; listed as 2): (solvate converted to form 6)

SMILES: COc1cc(C(=O)N2CC[C@]3(C=C(C(=O)O)CC3)Cc3ccccc32)ccc1NC(=O)c1cc(F)ccc1Cl [Form 3, (4R)-1-[4-(2-chloro-5-fluorobenzoyl)amino-3-methoxybenzoyl]-1,2,3,5-tetrahydro-spiro[4H-1-benzazepine-4,1′-[2]cyclopentene]-3′-carboxylic acid]
Solid form conversion (physical stability) [3]: converted to form 5 | Solid form conversion (physical stability) ([3]; listed as 3): (solvate converted to form 5)
